Results on 1 molecule are retold here after ChEMBL document CHEMBL4304803, “C-terminal modulators of heat shock protein of 90 kDa (HSP90): State of development and modes of action” (Bioorg Med Chem, 2019).

This assay deals with Heat shock protein HSP90 (Homo sapiens, UniProt P07900+P08238). Kind of assay: Binding affinity to HSP90 CTD (unknown origin) by circular dichroism spectroscopy. It counts as protein assay. (Circular dichroism is widely used to follow secondary structure.)

Molecules are shown by their SMILES.

Broadly, the Kd is the constant that tells how readily two partners part at equilibrium. Higher therefore signals weaker binding. On to `CC[C@H](C)[C@@H](ONC(=O)[C@H](ONC(=O)[C@@H](Cc1ccccc1)ONC(=O)[C@@H](Cc1ccccc1)ONC(=O)OCc1ccccc1)[C@@H](C)CC)C(=O)NO[C@H](CC(C)C)C(=O)NO[C@H](CC(C)C)C(N)=O`, for which the Kd amounted to 27.4 µM.
